Biological target: NC1 (DGCR8 dimer) (Homo sapiens, UniProt Q8WYQ5, P351A)
Experiment: biochemical

NC1 (DGCR8 dimer), sequence (Q8WYQ5 276-751 P351A): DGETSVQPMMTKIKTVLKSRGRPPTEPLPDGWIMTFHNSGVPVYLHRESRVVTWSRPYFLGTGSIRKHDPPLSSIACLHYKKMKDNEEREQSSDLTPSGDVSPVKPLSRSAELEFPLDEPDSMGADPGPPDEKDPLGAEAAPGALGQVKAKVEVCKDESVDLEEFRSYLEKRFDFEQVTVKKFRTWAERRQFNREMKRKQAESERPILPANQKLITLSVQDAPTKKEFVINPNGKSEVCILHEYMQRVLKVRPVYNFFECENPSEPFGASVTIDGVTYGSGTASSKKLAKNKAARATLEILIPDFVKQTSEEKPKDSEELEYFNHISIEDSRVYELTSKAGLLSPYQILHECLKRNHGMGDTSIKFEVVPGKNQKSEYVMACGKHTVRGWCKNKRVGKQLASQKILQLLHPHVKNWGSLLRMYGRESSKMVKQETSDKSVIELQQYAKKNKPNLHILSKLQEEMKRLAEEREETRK

Kd: ~5 pM
SMILES: C=CC1=C(C)C2=Cc3c(C=C)c(C)c4[n]3[Fe]([Cl])[n]3c(c(C)c(CCC(=O)O)c3=CC3=NC(=C4)C(C)=C3CCC(=O)O)=CC1=N2 [Fe(III) heme]

Reference: paper doi:10.1101/2020.02.18.955294v1 (biorxiv, 2020)
